Tests used:
Settings in all cases: human; call rule not given here
[1] = test system: Hepatotoxicity; experiment: FDA HLAED, liver enzyme composite activity
[2] = test system: Hepatotoxicity; experiment: FDA HLAED, gamma-glutamyl transferase (GGT) increase
[3] = test system: Hepatotoxicity; experiment: FDA HLAED, alkaline phosphatase increase
[4] = test system: Hepatotoxicity; experiment: FDA HLAED, serum glutamic oxaloacetic transaminase (SGOT) increase
[5] = test system: Hepatotoxicity; experiment: FDA HLAED, lactate dehydrogenase (LDH) increase
[6] = test system: Hepatotoxicity; experiment: FDA HLAED, serum glutamic pyruvic transaminase (SGPT) increase
Throughout, for GGT Increase - Index Value: reference of the scale not given here.
Throughout, for LDH Increase - Index Value: reference of the scale not given here.

Compound | Composite Activity - Active [1] | Composite Activity - Marginal [1] | Composite Activity - Score [1] | GGT Increase - Activity Score [2] | GGT Increase - Index Value [2] | GGT Increase - Number of Reports [2] | Alkaline Phosphatase Increase - Activity Score [3] | Alkaline Phosphatase Increase - Index Value [3] | Alkaline Phosphatase Increase - Number of Reports [3] | SGOT Increase - Activity Score [4] | SGOT Increase - Index Value [4] | SGOT Increase - Number of Reports [4] | LDH Increase - Activity Score [5] | LDH Increase - Index Value [5] | LDH Increase - Number of Reports [5] | SGPT Increase - Activity Score [6] | SGPT Increase - Index Value [6] | SGPT Increase - Number of Reports [6]
CN1CC[C@]23c4c5ccc(O)c4O[C@H]2C(=O)CC[C@H]3[C@H]1C5 [HYDROMORPHONE] | 0 | 0 | Inactive | Inactive | 0 | < 4 | Inactive | 0 | < 4 | Inactive | 0 | < 4 | Inactive | 0 | < 4 | Inactive | 0 | < 4
CCCCCCCN(CC)CCCC(O)c1ccc(NS(C)(=O)=O)cc1 (configuration not stated) [IBUTILIDE] | 0 | 0 | Inactive | Inactive | 0 | < 4 | Inactive | 0 | < 4 | Inactive | 0 | < 4 | Inactive | 0 | < 4 | Inactive | 0 | < 4
CC(=O)[C@]1(O)Cc2c(O)c3c(c(O)c2[C@@H](O[C@H]2C[C@H](N)[C@H](O)[C@H](C)O2)C1)C(=O)c1ccccc1C3=O [IDARUBICIN] | 0 | 0 | Inactive | Inactive | 0 | < 4 | Inactive | 0 | < 4 | Inactive | 0 | < 4 | Inactive | 0 | < 4 | Inactive | 0 | < 4
O=P1(NCCCl)OCCCN1CCCl (configuration not stated) [IFOSFAMIDE] | 1 | 0 | Inactive | Inactive | 0 | < 4 | Inactive | 5 | < 4 | Active | 17.5 | >= 4 | Inactive | 7.5 | < 4 | Inactive | 7.5 | < 4
Nc1cc(-c2ccncc2)c[nH]c1=O [INAMRINONE] | 0 | 0 | Inactive | Inactive | 0 | < 4 | Inactive | 2.2 | < 4 | Inactive | 6.6 | < 4 | Inactive | 2.2 | < 4 | Inactive | 4.4 | < 4
CC1Cc2ccccc2N1NC(=O)c1ccc(Cl)c(S(N)(=O)=O)c1 (configuration not stated) [INDAPAMIDE] | 0 | 0 | Inactive | Inactive | 0 | < 4 | Inactive | 0.5 | < 4 | Inactive | 1 | < 4 | Inactive | 0.5 | < 4 | Inactive | 0.5 | < 4
CC(=O)N(CC(O)CN(C(C)=O)c1c(I)c(C(=O)NCC(O)CO)c(I)c(C(=O)NCC(O)CO)c1I)c1c(I)c(C(=O)NCC(O)CO)c(I)c(C(=O)NCC(O)CO)c1I (configuration not stated) [IODIXANOL] | 0 | 0 | Inactive | Inactive | 0 | < 4 | Inactive | 0 | < 4 | Inactive | 0 | < 4 | Inactive | 0 | < 4 | Inactive | 0 | < 4
CC(=O)N(CC(O)CO)c1c(I)c(C(=O)NCC(O)CO)c(I)c(C(=O)NCC(O)CO)c1I (configuration not stated) [IOHEXOL] | 0 | 0 | Inactive | Inactive | 0 | < 4 | Inactive | 144.9 | < 4 | Inactive | 144.9 | < 4 | Inactive | 144.9 | < 4 | Inactive | 0 | < 4
C[C@H](O)C(=O)Nc1c(I)c(C(=O)NC(CO)CO)c(I)c(C(=O)NC(CO)CO)c1I [IOPAMIDOL] | 1 | 0 | Inactive | Inactive | 0 | < 4 | Inactive | 0 | < 4 | Inactive | 526.3 | < 4 | Active | 1579 | < 4 | Inactive | 0 | < 4

— ChEMBL document CHEMBL1697781, “Assessment of the health effects of chemicals in humans: II. Construction of an adverse effects database for QSAR modeling” (Curr Drug Discov Technol, 2004)
